Key:
Type in all cases: binding
PCSK9 [1] = target: T1, PCSK9 (Homo sapiens, UniProt Q8NBP7); test: PCSK9 Alexa FRET Ultra TR-FRET assay (displacement of AlexaFluor647 tagged cyclic peptide); conditions: 0.5 nM biotinylated PCSK9, 960 nM AF cyclic peptide, Ki calculated from IC50 and KD of AF peptide
T1 construct: Biotinylated PCSK9 was obtained commercially; purchased
Description: (§1) The following is a description of the assays used to determine activity of compounds of the invention, and any comparator compounds reported, toward PCSK9 antagonism. Biotinylated PCSK9 was obtained commercially.
A solution containing 1 nM biotinylated PCSK9+2.5 nM Lance Streptavidin Europium (Strep-Eu) is made in 50 mM HEPES pH 7.4, 0.15 M NaCl, 5 mM CaCl2, 0.01% BSA, and 0.01% Surfactant P20. A separate solution containing 1920 nM of the AlexaFluor tagged cyclic peptide is made in the same buffer system. An Echo is used to transfer 0.015 ul of compound plus 0.735 ul of DMSO to each well of an assay plate followed by the addition of 15 ul of PCSK9+Stept-Eu and 15 ul of AF peptide. The final assay volume is 30.750 ul containing 0.5 nM PCSK9, 1.25 nM Strep-Eu, and 960 nM AF cyclic peptide. The reaction is incubated at room temperature for at least two hours prior to fluorescence measurements using an Envision Multilabel Reader. IC50 values are determined by fitting data to a sigmoidal dose-response curve using nonlinear regression. Ki is then calculated from the IC50 and the KD of AF cyclic peptide. Counts (B-counts) of the europium-labeled PCSK9 are followed to observe if compounds are adversely affecting PCSK9. A fall off of the B-counts is likely indicates a false positive of inhibition. Data from this procedure is reported as “Ki Ultra=‘numerical value’ (data reported is nanomolar)”

PCSK9 [2] = target: T1, PCSK9; test: PCSK9 Alexa FRET Plus TR-FRET assay (displacement of AlexaFluor647 tagged cyclic peptide Reagent B); conditions: 0.5 nM biotinylated PCSK9, 960 nM AF cyclic peptide Reagent B, Ki calculated from IC50 and KD of AF peptide
Description: as §1
A solution containing 1 nM biotinylated PCSK9+2.5 nM Lance Streptavidin Europium (Strep-Eu) is made in 50 mM HEPES pH 7.4, 0.15 M NaCl, 5 mM CaCl2, 0.01% BSA, and 0.01% Surfactant P20. A separate solution containing 1920 nM of the AlexaFluor tagged cyclic peptide is made in the same buffer system. An Echo is used to transfer 0.075 ul of compound plus 0.675 ul of DMSO to each well of an assay plate followed by the addition of 15 ul of PCSK9+Stept-Eu and 15 ul of AF peptide. The final assay volume is 30.750 ul containing 0.5 nM PCSK9, 1.25 nM Strep-Eu, and 960 nM AF cyclic peptide. The reaction is incubated at room temperature for at least two hours prior to fluorescence measurements using an Envision Multilabel Reader. IC50 values are determined by fitting data to a sigmoidal dose-response curve using nonlinear regression. Ki is then calculated from the IC50 and the KD of AF cyclic peptide. Counts (B-counts) of the europium-labeled PCSK9 are followed to observe if compounds are adversely affecting PCSK9. A fall off of the B-counts is likely indicates a false positive of inhibition. Data from this procedure is reported as “P=‘numerical value’ (nanomolar)”
(§2) Activity data obtained by one or both of the above-described procedures is reported for selected example compounds of the invention in the following format: Example No.: A (standard TR Fret)=‘numerical value’; P (Alexa Fret plus standard TR Fret)=‘numerical value’/, note that all values reported are nanomolar.

PCSK9 [3] = target: T1, PCSK9; test: PCSK9 Alexa FRET Standard TR-FRET assay (displacement of AlexaFluor647 tagged cyclic peptide Reagent A)
Description: as §1
Alexa FRET Standard TR-FRET
A solution containing 1 nM biotinylated PCSK9+2.5 nM Lance Streptavidin Europium (Strep-Eu) is made in 50 mM HEPES pH 7.4, 0.15 M NaCl, 5 mM CaCl2, 0.01% BSA, and 0.01% Surfactant P20. A separate solution containing 40 nM of the AlexaFluor tagged cyclic peptide is made in the same buffer system. An Echo is used to transfer 0.750 ul of compound to an assay plate followed by the addition of 15 ul of PCSK9+Stept-Eu and 15 ul of AF peptide. The final assay volume is 30.750 ul containing 0.5 nM PCSK9, 1.25 nM Strep-Eu, and 20 nM AF cyclic peptide. The reaction is incubated at room temperature for at least two hours prior to fluorescence measurements using an Envision Multilabel Reader. […] values are determined by fitting data to a sigmoidal dose-response curve using nonlinear regression. Ki is then calculated from the IC50 and the KD of AF cyclic peptide. Counts (B-counts) of the europium-labeled PCSK9 are followed to observe if compounds are adversely PCSK9. A fall off of the B-counts likely indicates a false positive of inhibition. Data from this procedure is reported as “A=‘numerical value’ (nanomolar)”
as §2

T1 sequence (Q8NBP7 153-692): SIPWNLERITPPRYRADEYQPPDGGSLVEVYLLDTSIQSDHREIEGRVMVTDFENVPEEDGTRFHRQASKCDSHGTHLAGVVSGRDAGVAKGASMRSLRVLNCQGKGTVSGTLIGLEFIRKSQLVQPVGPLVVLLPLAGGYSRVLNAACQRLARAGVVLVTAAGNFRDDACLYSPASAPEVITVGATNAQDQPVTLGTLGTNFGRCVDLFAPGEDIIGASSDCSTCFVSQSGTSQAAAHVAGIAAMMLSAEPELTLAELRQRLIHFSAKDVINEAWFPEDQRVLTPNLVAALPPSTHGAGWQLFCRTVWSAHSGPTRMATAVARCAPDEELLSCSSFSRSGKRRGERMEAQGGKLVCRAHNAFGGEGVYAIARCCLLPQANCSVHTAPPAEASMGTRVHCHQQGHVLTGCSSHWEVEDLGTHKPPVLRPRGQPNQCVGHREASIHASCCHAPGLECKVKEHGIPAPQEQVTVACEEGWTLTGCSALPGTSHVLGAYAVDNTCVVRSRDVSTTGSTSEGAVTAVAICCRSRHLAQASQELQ

Row | Structure (SMILES) | Ki (PCSK9 [1]; Ki Ultra) | Ki (PCSK9 [2]; Ki Plus) | Ki (PCSK9 [3]) | Ki (PCSK9 [1]; read-out: Ki Ultra) | Ki (PCSK9 [2]; read-out: Ki Plus)
1 | COc1ccc(C[C@@H]2NC(=O)[C@H]([C@@H](C)O)NC(=O)[C@@H]3[C@@H]4CCN3C(=O)[C@@H]3Cc5cn(c6ccc(F)cc56)C/C=C/COc5cc(ccc5CNC(=O)CCC(=O)N[C@@H](C)C(=O)N[C@H](CN)C(=O)N[C@@H](Cc5cccc(c5)CNC(=O)CO4)C(=O)N3)CCNC(=O)[C@]3(C)CCCN3C2=O)cc1 [Ex-53] | 215 pM | 96.3 pM | < 1260 pM |  | 
2 | COc1ccc(C[C@@H]2NC(=O)[C@H]([C@@H](C)O)NC(=O)[C@@H]3[C@@H]4CCN3C(=O)[C@@H]3Cc5cn(c6ccc(F)cc56)CCCCOc5cc(ccc5CNC(=O)CCC(=O)N[C@@H](C)C(=O)N[C@H](CNC(=O)CCOCCOCC[N+](C)(C)C)C(=O)N[C@@H](Cc5cccc(c5)CNC(=O)CO4)C(=O)N3)CCNC(=O)[C@]3(C)CCCN3C2=O)cc1 [Ex-55] | 238 pM | 72.4 pM | < 1260 pM |  | 
3 | COc1ccc(C[C@@H]2NC(=O)[C@H]([C@@H](C)O)NC(=O)[C@@H]3[C@@H]4CCN3C(=O)[C@@H]3Cc5cn(c6ccc(F)cc56)CCCCCCN(Cc5ccc(cc5)CCNC(=O)[C@]5(C)CCCN5C2=O)C(=O)CCC(=O)N[C@@H](C)C(=O)N[C@H](CNC(=O)Cc2cccc(OCCC[N+](C)(C)C)c2)C(=O)N[C@@H](Cc2cccc(c2)CNC(=O)CO4)C(=O)N3)cc1 [Ex-56] | 4.81 pM | 22.4 pM | < 1260 pM |  | 
4 | COc1ccc(C[C@@H]2NC(=O)[C@H]([C@@H](C)O)NC(=O)[C@@H]3[C@@H]4CCN3C(=O)[C@@H]3Cc5cn(c6ccc(F)cc56)C/C=C/CCCN(Cc5ccc(cc5)CCNC(=O)[C@]5(C)CCCN5C2=O)C(=O)CCC(=O)N[C@@H](C)C(=O)N[C@H](CN)C(=O)N[C@@H](Cc2cccc(c2)CNC(=O)CO4)C(=O)N3)cc1 [Ex-51] | 5.97 pM | < 5.58 pM | < 1260 pM |  | 
5 | COCC[N+](C)(C)CCCCCC(=O)NC[C@H]1NC(=O)[C@H](C)NC(=O)CCC(=O)N2CCCCCCn3cc(c4cc(F)ccc43)C[C@@H]3NC(=O)[C@H](Cc4cccc(c4)CNC(=O)CO[C@H]4CCN(C3=O)[C@@H]4C(=O)N[C@@H]([C@@H](C)O)C(=O)N[C@@H](Cc3ccc(OC)cc3)C(=O)N3CCC[C@@]3(C)C(=O)NCCc3ccc(cc3)C2)NC1=O [Ex-58] | 1.96 pM | 7.73 pM | < 1260 pM |  | 
6 | COCCC[N+](C)(C)CCCCCC(=O)NC[C@H]1NC(=O)[C@H](C)NC(=O)CCC(=O)N2CCCCCCn3cc(c4cc(F)ccc43)C[C@@H]3NC(=O)[C@H](Cc4cccc(c4)CNC(=O)CO[C@H]4CCN(C3=O)[C@@H]4C(=O)N[C@@H]([C@@H](C)O)C(=O)N[C@@H](Cc3ccc(OC)cc3)C(=O)N3CCC[C@@]3(C)C(=O)NCCc3ccc(cc3)C2)NC1=O [Ex-57] | 1.62 pM | < 5.58 pM | < 1260 pM |  | 
7 | COc1ccc(C[C@@H]2NC(=O)[C@H]([C@@H](C)O)NC(=O)[C@@H]3[C@@H]4CCN3C(=O)[C@@H]3Cc5cn(c6ccc(F)cc56)C/C=C/CCCN(Cc5ccc(cc5)CCNC(=O)[C@]5(C)CCCN5C2=O)C(=O)CCC(=O)N[C@@H](C)C(=O)N[C@H](CNC(=O)CCOCCOCC[N+](C)(C)C)C(=O)N[C@@H](Cc2cccc(c2)CNC(=O)CO4)C(=O)N3)cc1 [Ex-52] | 3.59 pM | < 5.58 pM | < 1260 pM |  | 
8 | COc1ccc(C[C@@H]2NC(=O)[C@H]([C@@H](C)O)NC(=O)[C@@H]3[C@@H]4CCN3C(=O)[C@@H]3Cc5cn(c6ccccc56)CCCCCCN(Cc5ccc(cc5)CCNC(=O)[C@]5(C)CCCN5C2=O)C(=O)CCC(=O)N[C@@H](C)C(=O)N[C@H](CNC(=O)CCCCC[N+](C)(C)C)C(=O)N[C@@H](Cc2cccc(c2)CNC(=O)CO4)C(=O)N3)cc1 [Ex-35] | 84.3 pM | 46.5 pM |  |  | 
9 | COc1ccc(C[C@@H]2NC(=O)[C@H]([C@@H](C)O)NC(=O)[C@@H]3[C@@H]4CCN3C(=O)[C@@H]3Cc5cn(c6ccc(F)cc56)C/C=C/CC[C@@H](NC(=O)CCC(=O)N[C@@H](C)C(=O)N[C@H](CNC(=O)CCCCC[N+](C)(C)C)C(=O)N[C@@H](Cc5cccc(c5)CNC(=O)CO4)C(=O)N3)c3ccc(cc3)CCNC(=O)[C@]3(C)CCCN3C2=O)cc1 [Ex-47] | 11.9 pM | 14.7 pM |  |  | 
10 | COc1ccc(C[C@@H]2NC(=O)[C@H]([C@@H](C)O)NC(=O)[C@@H]3C4CCN3C(=O)[C@@H]3Cc5cn(c6ccc(F)cc56)CCCCN(Cc5ccc(cc5)CCNC(=O)[C@]5(C)CCCN5C2=O)C(=O)CCCCCC(=O)N[C@H](CNC(=O)CCC(=O)NC2OC(CO)C(O)C(O)C2O)C(=O)N[C@@H](Cc2cccc(c2)CNC(=O)CO4)C(=O)N3)cc1 (stereo partly shown) [Ex-26] |  |  |  | 2.75 pM | ≤ 5.58 pM
11 | COc1ccc(C[C@@H]2NC(=O)[C@H]([C@@H](C)O)NC(=O)[C@@H]3[C@@H]4CCN3C(=O)[C@@H]3Cc5cn(c6ccc(F)cc56)CCCCCCN(Cc5ccc(cc5)CCNC(=O)[C@]5(C)CCCN5C2=O)C(=O)CCC(=O)N[C@@H](C)C(=O)N[C@H](CN)C(=O)N[C@@H](Cc2cccc(c2)CNC(=O)CO4)C(=O)N3)cc1 [Ex-01] | 4.6 pM | < 5.58 pM |  |  | 
12 | COc1ccc(C[C@@H]2NC(=O)[C@H]([C@@H](C)O)NC(=O)[C@@H]3[C@@H]4CCN3C(=O)[C@@H]3Cc5cn(c6ccc(F)cc56)CCCCC[C@@H](NC(=O)CCC(=O)N[C@@H](C)C(=O)N[C@H](CNC(=O)CCCCC[N+](C)(C)C)C(=O)N[C@@H](Cc5cccc(c5)CNC(=O)CO4)C(=O)N3)c3ccc(cc3)CCNC(=O)[C@]3(C)CCCN3C2=O)cc1 [Ex-38] | 14.2 pM | 9.04 pM |  |  | 
13 | COc1ccc(C[C@@H]2NC(=O)[C@H]([C@@H](C)O)NC(=O)[C@@H]3[C@@H]4CCN3C(=O)[C@@H]3Cc5cn(c6ccc(F)cc56)Cc5cn(nn5)CCN(Cc5ccc(cc5)CCNC(=O)[C@]5(C)CCCN5C2=O)C(=O)CCC(=O)N[C@@H](CNC(=O)CCOCCOCC[N+](C)(C)C)C(=O)N[C@H](C)C(=O)N[C@@H](Cc2cccc(c2)CNC(=O)CO4)C(=O)N3)cc1 [Ex-13] |  |  |  | 477 pM | 145 pM
14 | COc1ccc(C[C@@H]2NC(=O)[C@H]([C@@H](C)O)NC(=O)[C@@H]3[C@@H]4CCN3C(=O)[C@@H]3Cc5cn(c6ccc(F)cc56)Cc5cn(nn5)Cc5cc(ccc5CNC(=O)CCC(=O)N[C@@H](C)C(=O)N[C@H](CNC(=O)CCOCCOCC[N+](C)(C)C)C(=O)N[C@@H](Cc5cccc(c5)CNC(=O)CO4)C(=O)N3)CCNC(=O)[C@]3(C)CCCN3C2=O)cc1 [Ex-09] | 247 pM | 91.9 pM |  |  | 
15 | COc1ccc(C[C@@H]2NC(=O)[C@H]([C@@H](C)O)NC(=O)[C@@H]3[C@@H]4CCN3C(=O)[C@@H]3Cc5cn(c6ccc(F)cc56)Cc5cn(nn5)CC(NC(=O)CCCCCC(=O)N[C@H](CNC(=O)CCOCCOCC[N+](C)(C)C)C(=O)N[C@@H](Cc5cccc(c5)CNC(=O)CO4)C(=O)N3)c3ccc(cc3)CCNC(=O)[C@]3(C)CCCN3C2=O)cc1 [Ex-12] |  |  |  | 22.5 pM | 14.5 pM
